# Measured values taken from US11452781B2, “Method of preventing and treating type 1 diabetes, allograft rejection and lung fibrosis (by targeting the ATP/P2X7R axis)” (CHILDREN'S MEDICAL CENTER CORPORATION, priority 2013, dated 2022).
# Entries after “also recorded” stand apart in the source; their conditions may differ.
# What was measured:
# [1] = system: C57BL/6 mice transplanted with BALB/c hearts; format: in vivo, mouse; conditions: oATP-treated cardiac-transplanted mice
# Method: The effect of P2X7R targeting in preventing cardiac transplant rejection was tested using the P2X7R inhibitor oATP.
# The effect of P2X7R targeting in preventing cardiac transplant rejection was tested by using the P2X7R inhibitor oATP.
# naïve CD4+ T-cells = assay: ELISPOT, naïve CD4+ T cells stimulated with anti-CD3-Ig and anti-CD28-Ig; format: cell-based, mouse; conditions: for anti-CD3-Ig/anti-CD28-Ig-mediated IFN-γ production: 100 μM oATP combined with 50 μM NF-449 and 50 μM 5-BDBD
# Method: The effect of P2X7R targeting was tested by treatment with oATP during T-cell activation. […] Similarly, in a T-cell proliferation assay, CFSE-labeled naïve CD4^+ T-cells were stimulated for 4 days with 0.5 μg/ml anti-CD3-Ig and anti-CD28-Ig; treatment with 100 μM oATP diminished CD4^+ T-cell proliferation (FIG. 5B, right panel) compared to controls (FIG. 5B, left panel).
# To address the mechanisms underlying P2X7R targeting mediated inhibition of cardiac transplant rejection, the inventors analyzed the effect of P2X7R targeting on T-cell activation and Th1/Th17 differentiation in vitro. […] The effect of in vitro P2X7R targeting with oATP during CD4+ T-cell activation was tested. […] Second, in a T-cell proliferation assay, carboxyfluorescein diacetate succinimidyl ester-labeled naïve CD4+ T cells were stimulated for 96 hours with 0.5 μg/mL anti-CD3-Ig and anti-CD28-Ig, and treatment with 100 μM oATP diminished CD4+ T cell proliferation in comparison with controls. […] The inventors next tested the effect of in vitro P2X7R targeting during a Th1/Th17 generation and differentiation assay. […] P2X7R targeting with oATP inhibited Th0 conversion into both Th1 and Th17, as assessed by the percentage of IFN-γ+ and IL-17+ cells, respectively. The inventors show, therefore, that P2X7R targeting through oATP suppresses activation, proliferation, and Th1/Th17 differentiation of CD4+ T cells. The inventors then further investigated the role of P2X7R on T-cell activation and Th1/Th17 differentiation by genetic upregulation of P2X7R. P2X7R cDNA was transduced by using a pMY-IRES-GFP retroviral vector into CD4+ T cells (pmY-P2X7R CD4+ T cells), and upregulation of P2X7R expression was confirmed by Western blot. pmY-P2X7R CD4+ T cells were then challenged with anti-CD3-Ig/anti-CD28-Ig stimulation in an ELISPOT assay. […] In a Th1/Th17 generation assay, pmY-P2X7R CD4+ T cells seemed to display increased differentiation capacity in comparison with pmY-mock CD4+ T cells, as assessed by T-bet and ROR-γ expression.
# (§1) Several key components of T-cell receptor signaling involved in the alloimmune response were examined, and the phosphorylation kinetics following in vitro anti-CD3-Ig/anti-CD28-Ig-mediated CD4+ T-cell activation was evaluated by using the Luminex assay. […] The inventors first confirmed that Colivelin (Col) was able to restore the activation-induced phosphorylation of STAT3 in a dose-dependent manner in oATP-treated CD4+ T cells by Western blotting. […] The effect of oATP and Colivelin on STAT3 phosphorylation and T-cell function was also evaluated following cardiac transplantation.
# STAT3 [2] = assay: Phosphorylation of T-cell signaling molecules in activated CD4+ T cells (Luminex/Milliplex, Western blot); format: cell-based, mouse; conditions: Colivelin add-back, Western blot
# Method: 60 minutes after anti-CD3-Ig and anti-CD28-Ig mediated activation, cells were lysed and the phosphorylation status of CREB, Erk, Akt, JNK, p38, p70 S6 Kinase, STAT3, and STAT5A/B was assessed using the Millipore Milliplex Cell Signaling Assay. […] Data were confirmed by western blot (FIG. 6D).
# as §1
# STAT3 [3] = assay: STAT3 phosphorylation in CD4+ T cells of cardiac-transplanted mice (Western blot); format: in vivo, mouse; conditions: 7 days after transplantation
# Method: as §1
# C57BL/6 splenocytes = assay: In vitro alloimmune ELISPOT, C57BL/6 responder splenocytes vs irradiated BALB/c splenocytes; format: cell-based, mouse; conditions: selective P2X1R / P2X3R inhibitors
# Source text: The effect of increasing doses of oATP on Th1/Th17 cytokine levels was next tested. A dose-dependent response was evident, in which oATP reduced the number of cells producing Th1 cytokines (IFN-γ and IL-2) and Th17 cytokines (IL-6 and IL-17). Because it has been reported that oATP may affect other P2XRs, the inventors made use of the availability of the selective P2X1R inhibitor NF 449 and of the selective P2X3R inhibitor NF 110. C57BL/6 splenocytes were stimulated with irradiated BALB/c splenocytes, and IFN-γ production was evaluated in the presence of these inhibitors.
# [4] = system: B6 recipients of BALB/c lung allografts; assay: Mouse orthotopic lung transplant, BALB/c donor and C57BL/6 recipient; format: in vivo
# Method: Orthotopic left lung transplants were performed as previously described {Bizargity, #22; Iken, #21}. Briefly, donor mice were anesthetized with ketamine and xylazine, intubated with a 22 G Angiocath, and ventilated with isoflurane/oxygen. Lungs were flushed with ice cold phosphate buffered saline, left lung harvested and cuffs placed in the pulmonary artery, pulmonary vein and bronchus. Recipient mice were anesthetized and ventilated with isoflurane/oxygen, and left lung transplants performed via a thoracotomy and implantation of the three-cuffed hilar structures. Transplanted lungs were harvested 15 to 60-70 days following transplantation.
# Allografts were evaluated 15, 30, and 60-70 days after transplant.
# Outcome Measures—In vivo assessment of transplanted lung function was performed by thoracic CT scan imaging and measuring peak airway pressures (PawP) as previously described {Bizargity, #22}. […] Flow cytometry and enzyme-linked immunosorbent spot assay (ELISPOT) for interferon (IFN)-γ and interleukin (IL)-4 were performed as previously described {Vergani, #25; Vergani, #9}.
# [5] = system: C57BL/6 mice transplanted with BALB/c islets; assay: Allogeneic islet transplantation, BALB/c islets into diabetic C57BL/6 mice: graft survival; format: in vivo, mouse; conditions: oATP daily i.p. 14-15 days, rapamycin 0.1 mg/kg 10 days
# [6] = system: PBMCs obtained from healthy control subjects; assay: ELISPOT, human PBMCs challenged with allogeneic irradiated PBMCs; format: cell-based
# CD4+ and CD8+ T cells = assay: IFN-γ production of CD4+ and CD8+ T cells with Bz-ATP; format: cell-based, mouse
molecule,measurement,setting,value
Colivelin,effect of Colivelin on oATP-mediated allograft survival,[1],greatly abrogated the effect of oATP
same,reversal of oATP-mediated suppression of IFN-γ-producing cells,naïve CD4+ T-cells; Colivelin added to oATP-treated cells,significantly revert; also recorded: partially reverted
same,activation-induced phosphorylation of STAT3 in oATP-treated CD4+ T cells,STAT3 [2],restore
same,phosphorylated STAT3 in CD4+ T cells,STAT3 [3],reestablish STAT3 phosphorylation
O=C(Nc1cc(C(=O)Nc2ccc(S(=O)(=O)O)cc2)cc(C(=O)Nc2ccc(S(=O)(=O)O)cc2)c1)Nc1cc(C(=O)Nc2ccc(S(=O)(=O)O)cc2)cc(C(=O)Nc2ccc(S(=O)(=O)O)cc2)c1 [NF 110],alloantigen-mediated IFN-γ production,C57BL/6 splenocytes,failed to modulate
Cc1ccc(C(=O)Nc2ccc(S(=O)(=O)O)c3cc(S(=O)(=O)O)cc(S(=O)(=O)O)c23)cc1NC(=O)c1cccc(NC(=O)Nc2cccc(C(=O)Nc3cc(C(=O)Nc4ccc(S(=O)(=O)O)c5cc(S(=O)(=O)O)cc(S(=O)(=O)O)c45)ccc3C)c2)c1 [suramin],acute cellular rejection (ACR grade),"[4]; 15, 30 and ≥60 days after transplantation",reduction
same,lung function (PawP),[4]; 15 to ≥60 days,improved
O=C(Nc1cc(C(=O)Nc2ccc(S(=O)(=O)O)cc2S(=O)(=O)O)cc(C(=O)Nc2ccc(S(=O)(=O)O)cc2S(=O)(=O)O)c1)Nc1cc(C(=O)Nc2ccc(S(=O)(=O)O)cc2S(=O)(=O)O)cc(C(=O)Nc2ccc(S(=O)(=O)O)cc2S(=O)(=O)O)c1 [NF 449],anti-CD3-Ig/anti-CD28-Ig-mediated IFN-γ production,naïve CD4+ T-cells,further suppression
same,alloantigen-mediated IFN-γ production,C57BL/6 splenocytes,failed to modulate
O=C1CN=C(c2cccc(Br)c2)c2oc3ccccc3c2N1 [5-BDBD],anti-CD3-Ig/anti-CD28-Ig-mediated IFN-γ production,naïve CD4+ T-cells,further suppression
CO[C@H]1C[C@@H]2CC[C@@H](C)[C@@](O)(O2)C(=O)C(=O)N2CCCC[C@H]2C(=O)O[C@H]([C@H](C)C[C@@H]2CC[C@@H](O)[C@H](OC)C2)CC(=O)[C@H](C)/C=C(\C)[C@@H](O)[C@@H](OC)C(=O)[C@H](C)C[C@H](C)/C=C/C=C/C=C/1C [Rapamycin],islet allograft mean survival time (MST),[5],19 days
same,islet allograft mean survival time (MST),[5]; listed as rapamycin,18 days
COC[C@H](O)Cn1c(=O)cnn(-c2ccc(Cl)c(C(=O)NCC3(O)CCCCCC3)c2)c1=O [CE-224535],allo- and autoimmune responses ex vivo,[6],inhibition
"Nc1ncnc2c1ncn2[C@@H]1O[C@H](COP(=O)(O)OP(=O)(O)OP(=O)(O)O)[C@@H](OC(=O)c2ccc(C(=O)c3ccccc3)cc2)[C@H]1O [Bz-ATP, benzoyl-ATP]",IFN-γ production,"CD4+ and CD8+ T cells; 1 mmol/L Bz-ATP, T cells from wildtype mice",increased
same,IFN-γ production,CD4+ and CD8+ T cells; T cells from P2X7R2/2 mice,similarly stimulated
